The results in this text go back to ChEMBL document CHEMBL4613236, “Magnoflorine from Coptis chinese has the potential to treat DNCB-induced Atopic dermatits by inhibiting apoptosis of keratinocyte” (Bioorg Med Chem, 2020).

SMILES strings stand for the structures. Calls of active or inactive are those of the source. The calls are words filed in the database; no cut-off is given here.

The subject of series [1] is HaCaT. The experiment in a line: Cytotoxicity against human HaCaT cells assessed as reduction in cell viability after 24 hrs by MTT assay. The class given is cell-based. On the technique in general: Tetrazolium assays rely on reduction of a dye to a coloured formazan, in cell work by metabolically active cells.
Series [2] concerns HaCaT. The experiment in a line: Inhibition of TNF-alpha/IFN-gamma-induced apoptosis in human HaCaT cells after 24 hrs by Annexin V-FITC/propidium iodide double staining-based flow cytometry. The class given is functional, cell-based. A general note: Flow cytometry measures light scatter and fluorescence of single cells or particles in a stream.
The test system of series [3] is Mus musculus. Nature of the series: Protection against DNCB-induced skin inflammation in BALB/c mouse model of atopic dermatitis assessed as reduction in skin erythema at 0.1 g/ml administered topically once daily for 16 days measured post last dose. Type of series: functional, organism-based.
The test system of series [4] is Mus musculus. Nature of the series: Protection against DNCB-induced skin inflammation in BALB/c mouse model of atopic dermatitis assessed as reduction in hair follicle disappearance at 0.1 g/ml administered topically once daily for 16 days measured post last dose. The class given is functional, organism-based.
Series [5] concerns HaCaT. The experiment in a line: Inhibition of TNFalpha/IFN-gamma-induced apoptosis in human HaCaT cells assessed as increase in caspase 9 expression at 500 ug/ml after 24 hrs by Western blot analysis. The class given is functional, cell-based. On the technique in general: In western blotting, separated proteins are transferred to a membrane and probed.
Series [6] has as its system Mus musculus. The experiment in a line: Protection against DNCB-induced skin inflammation in BALB/c mouse model of atopic dermatitis assessed as reduction in IL4 level at 0.1 g/ml administered topically once daily for 16 days measured post last dose by ELISA. The class given is functional, organism-based.
Series [7] relates to HaCaT. Nature of the series: Inhibition of TNFalpha/IFN-gamma-induced apoptosis in human HaCaT cells assessed as change in mitochondrial membrane potential at 500 ug/ml after 24 hrs by DiOC6 probe based flow cytometric analysis (reference value: 15.36 +/- 0.76). The class given is functional.
In series [8] the test system is HaCaT. Nature of the series: Inhibition of TNF-alpha/IFN-gamma-induced apoptosis in human HaCaT cells assessed as apoptotic rate at 1500 ug/ml after 24 hrs by Annexin V-FITC/propidium iodide double staining-based flow cytometry (reference value: 42.9%). The class given is functional. Further details: scale not given: the % may be the effect or the level left.
Series [9] deals with HaCaT. The experiment in a line: Inhibition of TNFalpha/IFN-gamma-induced apoptosis in human HaCaT cells assessed as increase in caspase 7 expression at 500 ug/ml after 24 hrs by Western blot analysis. Type of series: functional, cell-based.
Series [10] has as its system Mus musculus. The experiment in a line: Protection against DNCB-induced skin inflammation in BALB/c mouse model of atopic dermatitis assessed as reduction in skin dryness at 0.1 g/ml administered topically once daily for 16 days measured post last dose. The class given is functional, organism-based.
Series [11] relates to Mus musculus. The experiment in a line: Protection against DNCB-induced skin inflammation in BALB/c mouse model of atopic dermatitis assessed as reduction in IgE level at 0.1 g/ml administered topically once daily for 16 days measured post last dose by ELISA. Type of series: functional, organism-based.
For series [12], the system named is Mus musculus. Nature of the series: Protection against DNCB-induced skin inflammation in BALB/c mouse model of atopic dermatitis assessed as reduction in dermal edema at 0.1 g/ml administered topically once daily for 16 days measured post last dose. The class given is functional, organism-based.
Series [13] has as its system HaCaT. Nature of the series: Inhibition of TNFalpha/IFN-gamma-induced apoptosis in human HaCaT cells assessed as increase in Bid expression at 500 ug/ml after 24 hrs by Western blot analysis. Type of series: functional, cell-based.
The subject of series [14] is HaCaT. The experiment in a line: Inhibition of TNFalpha/IFN-gamma-induced apoptosis in human HaCaT cells assessed as increase in caspase 8 expression at 500 ug/ml after 24 hrs by Western blot analysis. The class given is functional, cell-based.
The subject of series [15] is HaCaT. Nature of the series: Inhibition of TNFalpha/IFN-gamma-induced apoptosis in human HaCaT cells assessed as rounded nuclei with sharp edges at 500 to 1500 ug/ml after 24 hrs by Hoechst staining based fluorescence microscopic analysis. Type of series: functional, cell-based.
The subject of series [16] is HaCaT. Nature of the series: Inhibition of TNFalpha/IFN-gamma-induced apoptosis in human HaCaT cells assessed as increase in cytochrome C expression at 500 ug/ml after 24 hrs by Western blot analysis. Type of series: functional, cell-based.
The subject of series [17] is HaCaT. The experiment in a line: Inhibition of TNFalpha/IFN-gamma-induced apoptosis in human HaCaT cells assessed as increase in mitochondrial membrane potential after 24 hrs by DiOC6 probe based flow cytometric analysis. Type of series: functional, cell-based.
Series [18] deals with Mus musculus. The experiment in a line: Protection against DNCB-induced skin inflammation in BALB/c mouse model of atopic dermatitis assessed as reduction in spleen index at 0.1 g/ml administered topically once daily for 16 days measured post last dose. The class given is functional, organism-based.
Series [19] relates to Mus musculus. The experiment in a line: Protection against DNCB-induced skin inflammation in BALB/c mouse model of atopic dermatitis assessed as reduction in skin erosion at 0.1 g/ml administered topically once daily for 16 days measured post last dose. Type of series: functional, organism-based.
The subject of series [20] is HaCaT. The experiment in a line: Inhibition of TNFalpha/IFN-gamma-induced apoptosis in human HaCaT cells assessed as increase in cathepsin B expression at 500 ug/ml after 24 hrs by Western blot analysis. Type of series: functional, cell-based.
In series [21] the test system is HaCaT. The experiment in a line: Inhibition of TNFalpha/IFN-gamma-induced apoptosis in human HaCaT cells assessed as increase in caspase 3 expression at 500 ug/ml after 24 hrs by Western blot analysis. The class given is functional, cell-based.
Series [22] in a line: Toxicity in DNCB-induced skin inflammation in BALB/c mouse model of atopic dermatitis assessed as effect on organs at 0.1 g/ml administered topically once daily for 16 days. The following applies: in vivo, topical_or_ocular, 384 h.
For series [23], the system named is Mus musculus. The experiment in a line: Protection against DNCB-induced skin inflammation in BALB/c mouse model of atopic dermatitis assessed as number of caspase-3 positive cells at 0.1 g/ml administered topically once daily for 16 days measured post last dose by […] based light microscopic analysis (reference value: 1054 +/- 74.9). Type of series: functional.

The subject of series [24] is HaCaT. Nature of the series: Induction of apoptosis in human HaCaT cells at 500 to 1500 ug/ml after 24 hrs by Hoechst staining based fluorescence microscopic analysis. Type of series: cell-based.

`COc1cc2c(cc1O)-c1cc3ccc(OC)c(OC)c3c[n+]1CC2` [COLUMBAMINE]: in the series on HaCaT [1], the Activity result was “Toxic”. The inhibition entry in the series on HaCaT [2] was “inactive”.
As to `COc1cc2c(cc1OC)-c1cc3ccc4c(c3c[n+]1CC2)OCO4`, the Activity result with HaCaT [1] is recorded as “Toxic”. Moreover, the inhibition result in the series with HaCaT [2] was “inactive”.
For `c1c2c(cc3c1OCO3)-c1cc3ccc4c(c3c[n+]1CC2)OCO4` [COPTISINE] the same measures were “Toxic” and “inactive”.
In the case of `COc1cc2c(cc1OC)-c1cc3ccc(OC)c(OC)c3c[n+]1CC2` [PALMITINE], in the series on HaCaT [1], the Activity entry is “Toxic”. Moreover, the inhibition entry with HaCaT [2] is “inactive”.
For `COc1cc2c(cc1O)CC[n+]1cc3c(OC)c(OC)ccc3cc1-2` [JATRORRHIZINE], in that order: “Toxic” and “inactive”.
Turning to `COc1ccc2c(c1O)-c1c(O)c(OC)cc3c1[C@H](C2)[N+](C)(C)CC3` [MAGNOFLORINE], the outcome in the series with Mus musculus [3], with Mus musculus [4], in the series on Mus musculus [6], in the series on Mus musculus [10], in the series with Mus musculus [11] and with Mus musculus [12] was Active. Besides, the outcome with Mus musculus [18] and with Mus musculus [19] was Active. Also, the inhibition entry in the series with HaCaT [5], with HaCaT [9], in the series on HaCaT [13], in the series on HaCaT [14], in the series with HaCaT [15] and with HaCaT [16] was “Active” each time. Further, the inhibition result in the series with HaCaT [20] and in the series with HaCaT [21] was “Active” in each case. In addition, the Activity entry in the series on HaCaT [1] is listed as “Non-Toxic”; in the series on HaCaT [7], 12.66; with HaCaT [8], 22.1%; in series [22], “Non-Toxic”; in the series on Mus musculus [23] it was 509.8; with HaCaT [24], “Non-Toxic”. Further, the inhibition result with HaCaT [2] and in the series on HaCaT [17] was “Dose-dependent effect” in each case.
Regarding `COc1ccc2cc3[n+](cc2c1OC)CCc1cc2c(cc1-3)OCO2` [BERBERINE], the Activity entry in the series on HaCaT [1] is “Toxic”. Also, the inhibition result in the series on HaCaT [2] is “inactive”.
